Legend:
EMX1-sgRNA [1] = test: In vitro DNA cleavage function of CRISPR sgRNA; type: biochemical; settings: Tris for DMG-cloaked sgRNA, DABCO for alkoxy acylimidazole-cloaked sgRNA; neutral pH, 11 hours
HEK293 = test: Translation of cloaked eGFP-mRNA in HEK293 cells; type: cell-based, human
HeLa cells [2] = test: Translation of cloaked d2GFP-mRNA in HeLa cells; type: cell-based, human
Protocol: We therefore adopted a reporter system employing mRNA encoding a destabilized green fluorescent protein d2GFP, where both mRNA and protein degradation occur with similar half-lives of ˜2-3 hours. We observed that the translation of unprotected d2GFP-mRNA quickly descended after peaking. […] Taken together, RNA cloaking by DMG derivative DMG acylimidazole effectively extended d2GFP-mRNA functional lifespan and translation, providing insights for the potential use of reversible 2′-acylation as a modulator of mRNA translation kinetics.

RNase A = test: Nucleolytic degradation of cloaked eGFP-mRNA by RNase A; type: biochemical
Source text: (§1) In this example, we systemically surveyed protective effects of cloaking with representative RNases and biofluids, recapitulating the common enzymatic conditions RNAs encounter during storage, handling, and application (FIG. 7). […] We next evaluated whether cloaking could ameliorate mRNA degradation in fetal bovine serum (FBS), a frequent component of eukaryotic cell culture (FIG. 8). […] This is likely due in part to DMG acylimidazole retaining RNA secondary structures and helicity for maximum resistance to RNases. Acylating reagents also protect eGFP-mRNA against FBS to varying degrees. […] Thus, 2′-acylation provides context-dependent protection of long RNA (e.g., mRNA) against ribonucleolytic enzymes. Reagent DMG acylimidazole effectively shields mRNA against a broad range of RNases.

[3] = Serum stability of cloaked EMX1-sgRNA; type: in vitro ADME; settings: 105nt sgRNA
Source text: (§2) In this example, we systematically characterized how acylimidazoles affect enzymatic degradation of EMX1-sgRNA in serum, a 105nt single guide RNA (sgRNA) for CRISPR-Cas9 gene editing (FIG. 7). […] Among all reagents, DMG acylimidazole enhanced sgRNA stability the most, by up to 14-fold. […] Although such protection most likely extends to other RNAs, the secondary structures of RNA may influence the magnitude of enhancement in enzymatic stability. […] This is likely due in part to different RNA motifs having distinct “hotspots” for enzymatic degradation, which may not be completely shielded by cloaking. Taken together, 2′-acylation effectively enhances the serum stability of RNA, the magnitude of which may be influenced by the length and structure of the underlying RNA.

SW480 = test: Translation of cloaked eGFP-mRNA in SW480 cells; type: cell-based, human
eGFP-mRNA [4] = test: In vitro translation assay of cloaked and uncloaked eGFP-mRNA; type: biochemical
Source text: introduced into the coding region of mRNAs. Thus, we investigated whether Tris could restore the translation of a model eGFP-mRNA densely cloaked (50%) by DMG acylimidazole. […] To explore the generality of this observation, we applied the methods to an in vitro transcribed CRISPR sgRNA. Acylation of EMX1-sgRNA by other reagents blocked its cleavage function (<10%) in vitro.

[5] = Serum stability of cloaked RNA motifs; type: in vitro ADME
Source text: as §2

eGFP-mRNA [6] = test: Accelerated RNA aging of cloaked eGFP-mRNA in RNase-free water at 37° C., capillary electrophoresis; type: physicochemical; settings: for resistance of cloaked eGFP-mRNA to thermal degradation: equivalently cloaked (˜50% of unpaired accessible 2′-OH); for extension of lifespan of eGFP-mRNA: extensive cloaking (>90% of accessible 2′-hydroxyls)
Protocol: (§3) In this example, the capacity to use this RNA cloaking strategy to stabilize RNA in solution was assessed with accelerated RNA aging experiments by incubating eGFP-mRNA species with or without cloaking with NAIN3 ((2-(azidomethyl)pyridin-3-yl)(1H-imidazol-1-yl)methanone) in RNase-free water at a mildly elevated temperature (37° C.) (FIG. 1). We then evaluated the lifespan of the mRNA by measuring the relative fraction of remaining fully intact RNA over time. […] Acylation-induced stabilization was further tested on a second, longer mRNA. […] No depurination of adenosine and […] was observed during the span of degradation experiments (FIG. 2). See, for example, FIG. 1.
(§4) We screened these acylimidazole reagents for modulation of RNA thermal degradation by performing accelerated RNA aging experiments with eGFP-mRNA aliquots that were equivalently cloaked (˜50% of unpaired accessible 2′-OH). Representative CE data are shown in FIG. 1 for cloaked eGFP-mRNA, which resisted thermal degradation across broad substituent types. […] Noting subtle differences in the stabilization, we hypothesized that the varying protection afforded by the reagents might arise from differential hydrolytic stability of their adducts; this was later confirmed (see below). […] To compensate for this, more extensive cloaking by N,N-dimethylglycine (DMG) acylimidazole (>90% of unpaired accessible 2″-OH) extended the lifespan of eGFP-m RNA by ˜5-fold.

RNase T1 = test: Nucleolytic degradation of cloaked eGFP-mRNA by RNase T1; type: biochemical
Source text: as §1

18nt model RNA = test: Nucleophile screen for removal (uncloaking) of 2′-acyl adducts; type: physicochemical; settings: for reversibility of acyl adducts by nucleophiles: 37° C., neutral pH
Source text: Nucleophiles are known to catalyze ester hydrolysis; examples include the use of imidazole and pyridine as nucleophilic catalysts. To restore biological activity of RNAs after cloaking-based stabilization, we tested uncloaking strategies to promote rapid hydrolysis of 2′-carboxyl esters with weakly basic nucleophiles (FIG. 5). […] In the library design, we avoided the use of strong Bronsted bases to prevent hydrolytic RNA backbone cleavage. Nucleophiles were screened against the 18nt model RNA containing acyl groups of each type at 37° C. and neutral pH, which identified at least 9 sensitive acylation-nucleophile pairs that promoted >50% removal of adducts within 2 hours. […] Other adducts can also be rapidly removed with designated nucleophiles, with half-lives for reversal ranging from 1.1 to 1.8 hours.
For 2′-acyl adduct by DMG, the effects of the biocompatible tris(hydroxymethyl) aminomethane (Tris) buffer alone were substantial, consistent with previous reports that Tris can hydrolyze active esters.

EMX1-sgRNA [7] = test: Storage of cloaked EMX1-sgRNA in frozen RNase-free water (−80° C.); type: physicochemical; settings: 9 months
Protocol: FIG. 4. Integrity of cloaked EMX1-sgRNA (105 nt) upon incubation in frozen RNase-free water after 9 months (−80° C.).
as §4

Fluc-mRNA = test: Accelerated RNA aging of cloaked Fluc-mRNA in water at 37° C.; type: physicochemical; settings: extensive cloaking (>90% of unpaired 2′-hydroxyls), six days in water
Protocol: as §3

HeLa cells [8] = test: Translation of cloaked eGFP-mRNA in transfected HeLa cells (flow cytometry, fluorescence imaging); type: cell-based, human; settings: intermediately cloaked, over two days
Source text: Intact cells maintain high intracellular concentrations of nucleophilic species such as cysteine and glutathione. […] In this example, we employed cloaked mRNAs encoding fluorescent reporter proteins. Indeed, we observed the emergence of strong green fluorescence signals by flow cytometry over a period of two days in HeLa cells transfected with intermediately DMG-cloaked eGFP-mRNA. […] Moreover, the delayed translation of cloaked mRNAs reflects an initial uncloaking step, which when occurring over time may provide slow-release translation kinetics—reducing an early expression peak and extending the duration of translation (see below). Finally, we also observed that translation of eGFP-mRNA with alkoxyl acyl adduct can also be restored in cells, highlighting possible control over mRNA release kinetics by modification of the acyl group.

[9] = test system: mRNAs (TBP, PPIE, and PSMB6); settings: HEK293 total RNA cloaked with DMG acylimidazole; Tris alone, neutral pH, 24 h
Protocol: For instance, the ability of a single 2′-acylation to halt reverse transcriptase during primer extension necessitates efficient 2′-deacylation to avoid premature reverse transcription termination. […] We isolated and cloaked total cellular RNA from HEK293 cells with DMG acylimidazole, and recovery efficiency was evaluated for three representative mRNAs by the reverse transcription efficiencies. […] Recent experiments have shown that local 2′-acylation can terminate translation when

C1CN2CCN1CC2 [DABCO, 1,4-diazabicyclo[2.2.2]octane]
restoration of DNA cleavage of cloaked sgRNA (EMX1-sgRNA [1]): fully restored DNA cleavage

CN(C)CC(=O)n1ccnc1 [DMG acylimidazole, N,N-dimethylglycine (DMG) acylimidazole]
recovery of eGFP expression (HEK293): confirmed generality
enhancement of total protein output of d2GFP-mRNA (HeLa cells [2]; HeLa cells, versus unprotected d2GFP-mRNA): 31%
duration of sustained d2GFP-mRNA translation at its peak level (HeLa cells [2]; intermediate cloaking, HeLa): ~10 h
protection of eGFP-mRNA from nucleolytic degradation by RNase A (RNase A): effectively shielded
increase in serum stability of EMX1-sgRNA [3]: up to 14 fold
recovery of eGFP expression (SW480): confirmed generality
translation of cloaked eGFP-mRNA in vitro (eGFP-mRNA [4]; eGFP-mRNA densely cloaked (50%)): strongly blocked the translation
serum stability of a bulge loop RNA motif ([5]; bulge loop): increases the serum stability
serum stability of an internal loop motif ([5]; internal loop): minimal enhancement
serum stability of a structurally complex pseudoknot ([5]; pseudoknot): increases the serum stability
resistance of cloaked eGFP-mRNA to thermal degradation (eGFP-mRNA [6]): slightly reduced enhancement of RNA thermal stability
extension of lifespan of eGFP-mRNA (eGFP-mRNA [6]; RNase-free water, 37° C.): ~5 fold
protection of eGFP-mRNA from nucleolytic degradation by RNase T1 (RNase T1): effectively shielded
reversal of 2′-acyl adduct by Tris buffer alone (18nt model RNA): substantial
stability of in vitro transcribed EMX1-sgRNA on storage (EMX1-sgRNA [7]): enhanced stability

[N-]=[N+]=NCc1ncccc1C(=O)n1ccnc1 [NAIN3, (2-(azidomethyl)pyridin-3-yl)(1H-imidazol-1-yl)methanone, reference compound]
backbone cleavage of Fluc-mRNA (Fluc-mRNA): almost completely blocked backbone cleavage
translation of cloaked eGFP-mRNA in cells (HeLa cells [8]): translation remained strongly inhibited
extension of lifespan of eGFP-mRNA (eGFP-mRNA [6]; RNase-free water, 37° C.): -7 fold
extension of lifespan of intact eGFP-mRNA (eGFP-mRNA [6]; intermediate cloaking (˜50% of unpaired 2′-hydroxyls), RNase-free water, 37° C.): -3 fold
damage to the nucleobases (deamination of adenine and cytosine) (eGFP-mRNA [6]; within the timespan of the aging experiment): No damage to the nucleobases
reversibility of acyl adducts by nucleophiles (18nt model RNA): can be reversed via Staudinger reaction

CC(=O)n1ccnc1 [acetylimidazole]
resistance of cloaked eGFP-mRNA to thermal degradation (eGFP-mRNA [6]): attenuated RNA hydrolysis
reversibility of acyl adducts by nucleophiles (18nt model RNA): relatively resistant to reversal by nonbasic nucleophiles
reversal of 2′-acyl adduct by Tris buffer alone (18nt model RNA): not reversed by Tris

CCOCC(=O)n1ccnc1 [ethoxyacetyl compound]
resistance of cloaked eGFP-mRNA to thermal degradation (eGFP-mRNA [6]): providing the most stability

O=C(c1cccnc1)n1ccnc1 [nicotinic acid acylimidazole]
reversibility of acyl adducts by nucleophiles (18nt model RNA): relatively resistant to reversal by nonbasic nucleophiles

tris(hydroxymethyl)aminomethane
restoration of DNA cleavage of cloaked sgRNA (EMX1-sgRNA [1]): fully restored DNA cleavage
recovery of reverse transcription of cloaked mRNAs [9]: reinstated the reverse transcription
restoration of eGFP expression (eGFP-mRNA [4]; DMG acylimidazole-cloaked eGFP-mRNA, Tris, pH=7.5 at 37° C.): up to 87%

From patent US20240093184A1, “CHEMICALLY REVERSIBLE 2`-OH ACYLATION PROTECTS RNA FROM HYDROLYTIC AND ENZYMATIC DEGRADATION” (The Board of Trustees of the Leland Stanford Junior …, priority 2022, published 2024)
